Tests used:
[1] = target: T1, wild-type mouse Pgp (MDR3) (Mus musculus, UniProt P21447)
Protocol: (§1) Overexpression of wild-type mouse Pgp (MDR3) was achieved by using genetically engineered strains of Pichia pastoris with a 6X histidine tag. The cells were cultured in glycerol media, and methanol was used to induce the overexpression of Pgp at the Bioexpression and Fermentation Facility (BFF), University of Georgia, Athens, GA, USA. A repeated cycle of freezing using liquid nitrogen, blending, and thawing was used to lyse the Pgp-expressing P. pastoris cells. The protein was purified using affinity chromatography with nickel-nitrilotriacetic acid (Ni-NTA) resin (Thermo Fisher Scientific, Waltham, MA, USA). DDM was used to solubilize the protein, and the solution was concentrated using Amicon Ultra-15 100 kDa cut-off filters (EMD Millipore, Billerica, MA, USA). The concentration of purified protein was measured at 280 nm using a calculated extinction coefficient of 1.28 per mg mL^−1 on a Nanodrop (DeNovix, Wilmington, DE, USA). […] The purified DDM-solubilized Pgp was aliquoted and stored at −80 °C for future analysis.
(§2) Approximately 40 µL of DDM-solubilized Pgp was dialyzed for two hours against HEPES buffer (20 mM HEPES, 100 mM NaCl, 5 mM MgCl2, 2 mM DTT, pH 7.4) to remove any remnants of the detergent, DDM. The dialyzed protein was mixed with 4 mg mL^−1 of the extruded liposomes and incubated on ice for at least one hour to allow Pgp to integrate into the liposomes. To remove any additional detergent and further facilitate Pgp integration into the liposome, the solution was dialyzed for a second time for two hours in HEPES buffer to form proteoliposomes, and the concentration of Pgp reconstituted in liposomes was determined using the Bio-Rad DC Protein assay. Finally, the solution was aliquoted and stored at −80 °C for future use.
Acrylamide, an aqueous collisional quencher, can be used to determine the changes in conformation upon Pgp-drug interaction. The principle of this technique is that as the drug interacts with the protein, the conformation of the accessible tryptophan residues in the protein also changes, resulting in a shift in fluorescence intensity. For this experiment, to measure the fluorescence of Pgp reconstituted in liposomes, in the presence (250 µM) or absence of drug(s), the excitation and emission wavelengths used were 295 nm and 330 nm, respectively. The proteoliposomes were diluted to a final concentration of 1 µM in Chifflet buffer (pH 7.4) containing 2 mM DTT, and it was titrated against an increasing concentration of acrylamide. A concentration of 11 µM N-acetyl-L-tryptophanamide (NATA), an analog of tryptophan, was used as a positive control to determine non-specific quenching. A saturated concentration of AMPPNP (3.2 mM), a non-hydrolysable form of ATP, was used to generate an outward-open conformation of Pgp. All the experiments for acrylamide quenching were performed at 21 °C. To correct the fluorescence intensities for background, dilution, and inner filter effects, […] was used. A Stern–Volmer plot was constructed with F0(corrected)/F(corrected) versus acrylamide concentration. The slope of the curve determined the degree of quenching, and it was related to the Stern–Volmer constant (Ksv) by Equation (4), as follows:(4) Focorrected/Fcorrected=1+KsvQ where F0(corrected)/F(corrected) = Stern–Volmer plot; Ksv = Stern–Volmer constant; and [Q] = acrylamide concentration.

[2] = target: T1, wild-type mouse Pgp (MDR3); experiment: biochemical
Protocol: as §1, §2
The intrinsic tryptophan residues in the protein can be selectively excited and emitted at 295 nm and 330 nm wavelengths, respectively. The binding of the drug to the protein can alter the spatial arrangement encountered by the tryptophan residue(s) and thereby regulate the fluorescence intensity of the protein [52]. […] Proteoliposomes diluted to 1 µM in Chifflet buffer containing 2 mM DTT were titrated against varying concentrations of drugs. The intrinsic protein fluorescence was measured at 330 nm upon excitation at 295 nm using an Olis DM 45 spectrophotometer (Olis Corporation, Bogart, GA, USA). To nullify the effect of Rayleigh bands on the observed spectra, a 10 nm band-pass filter was inserted on the excitation and emission paths of the spectrophotometer. The drug-induced quenching of intrinsic Pgp fluorescence was corrected (Fcorrected) for factors such as dilution, background fluorescence, and inner filter effects using the equation mentioned below (Equation (2)).(2) Fcorrected=F−B10^εexbex+εembemQ/2 where Fcorrected = Drug-induced quenching of intrinsic Pgp fluorescence; F = Emitted intrinsic Pgp fluorescence at 330 nm; [Q] = Concentration of drug; εex and εem = Excitation and emission extinction coefficients, respectively; bex and bem = Path lengths of excitation (0.4 mm) and emission (10 mm) wavelengths, respectively; and B = Background fluorescence measured from drug and solvent.
The resulting quenching curves were fit using a modified Stern-Volmer equation (Equation (3)), as follows:(3) Fcorrected=FOcorrected/1+KsvQ+Funquenched where Fcorrected = The corrected fluorescence; F0(corrected) = Fluorescence recorded in the absence of drug; [Q] = Concentration of drug; Ksv = Stern–Volmer constant; and F(unquenched) = unquenched fluorescence.

[3] = target: T1, wild-type mouse Pgp (MDR3); details: mouse, not told, pH 7.4
Text: The STDD NMR technique is a robust method used to characterize the interaction between a drug and receptor protein [36, 86]. This technique utilizes a saturated low-strength radio frequency (RF) to selectively excite the receptor protein. […] Due to the localization of Pgp, most of its substrates are lipophilic, resulting in a probable non-specific interaction between its substrates and liposomes in the observed STD NMR spectrum. Therefore, STD NMR of liposomes in the presence of drugs was performed. The resulting spectrum was subtracted from the ^1H STD NMR spectrum obtained from the drug in the presence of proteoliposome (Pgp reconstituted into liposome) to achieve a saturation transfer double-difference (STDD) NMR spectrum, which nullified the STD observations of the drugs in the presence of liposomes.
This technique was performed as previously described. […] The NMR tubes with the sample were centrifuged at 3000× g for 5 min. To suppress the background signals caused by water, a tailored gradient pulse sequence known as water suppression by gradient-tailored excitation (WATERGATE) was also included. A train of 50 ms Gaussian-shaped selective pulses was used to selectively excite and saturate Pgp for two seconds, and a relaxation delay of five seconds was also used. The STD NMR spectra for both the control and the samples were obtained through phase cycling, where the Pgp irradiation resonance was alternated between 1.5 ppm and 42 ppm on and off resonance, respectively, for 512 scans, creating the ^1H NMR spectrum.
For this experiment, the NMR studies were performed on a Bruker Avance NEO 800 MHz NMR spectrometer with a 1.7 mm TCI H{CN} probe at 25 °C. The STD NMR data generated were analyzed using iNMR software (Nucleomatic, Molfetta, Italy), Igor Pro 6.2, and Mnova 14.2.0 (Mastrelab Research S.L., Santiago de Compostela, Spain).

T1 sequence (P21447 whole entry): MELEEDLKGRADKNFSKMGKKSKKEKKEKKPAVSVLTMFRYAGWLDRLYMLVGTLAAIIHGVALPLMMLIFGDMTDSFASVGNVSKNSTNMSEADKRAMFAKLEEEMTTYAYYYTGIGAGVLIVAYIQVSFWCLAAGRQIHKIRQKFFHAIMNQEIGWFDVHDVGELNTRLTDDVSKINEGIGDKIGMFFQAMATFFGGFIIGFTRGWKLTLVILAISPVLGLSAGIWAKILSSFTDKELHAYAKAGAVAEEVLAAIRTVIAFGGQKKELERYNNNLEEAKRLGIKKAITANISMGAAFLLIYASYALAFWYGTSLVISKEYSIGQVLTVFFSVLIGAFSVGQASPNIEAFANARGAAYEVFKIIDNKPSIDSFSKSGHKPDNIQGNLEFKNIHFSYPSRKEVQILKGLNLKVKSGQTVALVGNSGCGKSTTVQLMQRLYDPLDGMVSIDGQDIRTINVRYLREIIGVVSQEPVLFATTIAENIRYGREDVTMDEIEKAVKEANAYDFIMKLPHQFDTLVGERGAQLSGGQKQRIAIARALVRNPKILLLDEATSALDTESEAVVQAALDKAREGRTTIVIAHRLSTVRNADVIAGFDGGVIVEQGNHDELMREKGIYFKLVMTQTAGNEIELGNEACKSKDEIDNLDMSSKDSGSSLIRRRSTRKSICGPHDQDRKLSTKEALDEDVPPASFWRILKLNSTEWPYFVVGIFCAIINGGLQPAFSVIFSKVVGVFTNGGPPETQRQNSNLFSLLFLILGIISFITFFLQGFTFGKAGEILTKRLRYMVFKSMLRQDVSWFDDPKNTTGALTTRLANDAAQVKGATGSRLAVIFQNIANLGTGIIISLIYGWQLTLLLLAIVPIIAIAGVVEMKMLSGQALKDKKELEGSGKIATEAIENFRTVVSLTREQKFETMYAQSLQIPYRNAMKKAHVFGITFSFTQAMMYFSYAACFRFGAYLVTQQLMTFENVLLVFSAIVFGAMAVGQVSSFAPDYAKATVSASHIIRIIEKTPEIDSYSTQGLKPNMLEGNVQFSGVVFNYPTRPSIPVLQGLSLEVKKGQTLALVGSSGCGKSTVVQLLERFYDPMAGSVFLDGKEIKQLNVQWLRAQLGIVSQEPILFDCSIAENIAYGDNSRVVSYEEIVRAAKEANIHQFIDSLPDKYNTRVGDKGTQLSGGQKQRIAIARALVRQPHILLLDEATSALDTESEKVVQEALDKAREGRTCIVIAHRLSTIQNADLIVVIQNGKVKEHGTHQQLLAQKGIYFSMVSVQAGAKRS

Row | SMILES | Ksv of Pgp (acrylamide quenching) in the presence of AMPPNP alone [1] [M⁻¹] | Kd [2] [µM] | Pgp conformation upon drug binding in the absence of a nucleotide [1] | Interaction (Region/Group) Pgp (STDD-NMR Data) [3]
1 | Nc1ncnc2c1ncn2[C@@H]1O[C@H](COP(=O)([O-])OP(=O)([O-])NP(=O)([O-])[O-])[C@@H](O)[C@H]1O.[Li+].[Li+].[Li+].[Li+] [AMPPNP, Adenosine 5′-(β,γ-imido) triphosphate lithium salt] | 1.6 ± 0.01 |  |  | 
2 | C[C@H]1O[C@@H](O[C@H]2[C@@H](O)C[C@H](O[C@H]3[C@@H](O)C[C@H](O[C@H]4CC[C@@]5(C)[C@H](CC[C@@H]6[C@@H]5CC[C@]5(C)[C@@H](C7=CC(=O)OC7)CC[C@]65O)C4)O[C@@H]3C)O[C@@H]2C)C[C@H](O)[C@@H]1O [Digitoxin] |  | 16.7 ± 4.44 | intermediate | Protons on C3,C17, C18, C19 of steroid; C22 of lactone; C3,C5,C6 of sugar
